In article PMC6588697, “Lugdunin amplifies innate immune responses in the skin in synergy with host- and microbiota-derived factors” (Nature Communications, 2019):
Where “and” joins values, the source holds several entries; their conditions need not be identical. Identical values can stand only once.

Assays:
[1] = tested on: mouse skin; experiment: Immune cell composition of mouse skin after epicutaneous treatment (flow cytometry); type: in vivo, C57BL/6 WT, MyD88-ko, 5xTLR-ko mice; details: for percentage of monocytes (Ly6C+Ly6G−) of CD11b+CD45+ live cells / percentage of neutrophils (Ly6C+Ly6G+) of CD11b+CD45+ live cells: Fig 3d
Procedure: Fig. 3 Epicutaneous lugdunin recruits phagocytic cells. a Schematic overview of the mouse experiments: 6–8-week-old female C5BL/6 wild-type (WT), MyD88-ko, or 5xTLR-ko mice were epicutaneously treated with 1.5 µg lugdunin or phosphate-buffered saline (PBS) as a control. After 24 h, mice were euthanized, immune cells were isolated from treated skin areas, and immune cell composition was analyzed by flow cytometry. b Shown is the mean percentage of CD45+ live cells in mouse skin of 10 C57BL/6 WT mice ± s.e.m. One mouse is represented as two dots analyzed by two different stainings. c Pie charts show the mean percentage of the different immune cell subsets in the skin of 10 WT mice after 24 h of PBS or lugdunin treatment. d Shown are representative flow cytometry data (left panel) and the mean percentage of neutrophils (Ly6C+Ly6G+) and monocytes (Ly6C+Ly6G−) pregated on CD11b+CD45+ live cells (see Supplementary Fig. 3a, f for the gating strategy) in mouse skin ± s.e.m. One dot represents one mouse. *P < 0.05. e Representative myeloperoxidase (MPO)-stained paraffin-embedded mouse skin sections. Scale bar, 100 µM. Source data are provided as a Source Data file TEXT PRINTED IN THE PICTURE: (c) PBS: NK cells: 21%; B cells: 0%; T cells: 10%; Dendritic cells: 8%; CD11b+ cells: 43%; Others: 18%; Macrophages: 73%; Monocytes: 15%; Neutrophils: 3%; Others: 9% | (c) Lugdunin: NK cells: 18%; B cells: 0%; T cells: 11%; Dendritic cells: 10%; CD11b+ cells: 45%; Others: 16%; Macrophages: 64%; Monocytes: 21%; Neutrophils: 6%; Others: 9% | (d) PBS: Monocytes 13,3 (WT); Neutrophils 2,51 (WT); Q4 83,6 (WT); Q3 0,53 (WT); Monocytes 2,34 (MyD88-ko); Neutrophils 0,95 (MyD88-ko); Q4 94,4 (MyD88-ko); Q3 2,27 (MyD88-ko); Monocytes 12,8 (5xTLR-ko); Neutrophils 0,88 (5xTLR-ko); Q4 85,0 (5xTLR-ko); Q3 1,32 (5xTLR-ko) | (d) Lugdunin: Monocytes 17,3 (WT); Neutrophils 11,1 (WT); Q4 70,6 (WT); Q3 0,99 (WT); Monocytes 3,14 (MyD88-ko); Neutrophils 0,54 (MyD88-ko); Q4 94,9 (MyD88-ko); Q3 1,41 (MyD88-ko); Monocytes 12,9 (5xTLR-ko); Neutrophils 1,74 (5xTLR-ko); Q4 84,3 (5xTLR-ko); Q3 1,06 (5xTLR-ko) DOUBTS OF THE COPYIST ABOUT THIS PICTURE: Panel c: the percentages are printed on the pie slices without cell-type names. They were matched to cell types only by the colour legend, so the match is not certain, especially among the blue shades of the lower pies. / PBS is the vehicle control, not a test substance. Its values are given because they are printed under that name. / Panel d: the quadrant numbers are in very small print, so 3, 5, 6, 8 and 9 cannot be told apart with certainty. / PBS WT, Monocytes 13,3: either 3 could be 8 / PBS WT, Neutrophils 2,51: 5 could be 6 / PBS WT, Q4 83,6: 8, 3 and 6 uncertain / PBS WT, Q3 0,53: 5 and 3 uncertain / PBS MyD88-ko, Monocytes 2,34: 3 could be 8 / PBS MyD88-ko, Neutrophils 0,95: 9 and 5 uncertain / PBS MyD88-ko, Q4 94,4: 9 uncertain / PBS 5xTLR-ko, Monocytes 12,8: 8 could be 3 / PBS 5xTLR-ko, Neutrophils 0,88: either 8 uncertain / PBS 5xTLR-ko, Q4 85,0: 8 and 5 uncertain / PBS 5xTLR-ko, Q3 1,32: 3 could be 8 / Lugdunin WT, Monocytes 17,3: 3 could be 8 / Lugdunin WT, Q4 70,6: 6 could be 8 / Lugdunin WT, Q3 0,99: either 9 uncertain / Lugdunin MyD88-ko, Monocytes 3,14: 3 could be 8 / Lugdunin MyD88-ko, Neutrophils 0,54: 5 could be 6 / Lugdunin MyD88-ko, Q4 94,9: either 9 uncertain / Lugdunin 5xTLR-ko, Monocytes 12,9: 9 could be 8 / Lugdunin 5xTLR-ko, Q4 84,3: 8 and 3 uncertain / Lugdunin 5xTLR-ko, Q3 1,06: 6 could be 8
To analyze the immune cell composition and cytokines in the skin, 15 µL containing 1.5 μg lugdunin or PBS as a control were epicutaneously applied for 24 h on the shaved back skin of C57BL/6 WT/MYD88-ko/5xTLR-ko mice. After 24 h, mice were euthanized and relevant skin areas or 4 mm skin punches were removed for immune cell analysis and LEGENDplex^TM (BioLegend) cytokine analysis. […]

[2] = tested on: primary human neutrophils, erythrocytes, HL60; details: cited from earlier work
From the text: Lugdunin represents the founding member of the new class of cyclic thiazolidine-containing peptide antibiotics. […] In our previous work, we have shown that lugdunin treatment led to a strong reduction and even complete eradication of viable S. aure ...

[3] = 5xTLR-ko mice, 1.5 µg lugdunin 24 h, one value per mouse
[4] = MyD88-ko mice, 1.5 µg lugdunin 24 h, one value per mouse
[5] = WT mice, 1.5 µg lugdunin 24 h, one value per mouse

Question: For Lugdunin, which “percentage of monocytes (Ly6C+Ly6G−) of CD11b+CD45+ live cells” value (shortened to “percentage of monocytes”) [1, 3] is on record?
Answer: completely impaired and 20.3% and 17.1% and 9.43% and 21.4% and 16.9% and 6.11% and 12.9%

Question: And the “percentage of neutrophils (Ly6C+Ly6G+) of CD11b+CD45+ live cells” value (shortened to “percentage of neutrophils”) [1, 3]?
Answer: completely impaired and 5.72% and 2.72% and 4.06% and 8.41% and 1.29% and 0.57% and 1.74%

Question: What about the “percentage of CD45+ live cells in mouse skin” value ([1]; 10 WT mice, 1.5 µg lugdunin epicutaneous 24 h, each mouse two values (two stainings), Fig 3b) of the same substance?
Answer: 14.9% and 13.5% and 14.7% and 11.7% and 14.6% and 11.5% and 13.9% and 11.3% and 13.1% and 10.2% and 12.2% and 10.7% and 12.3% and 10.1% and 6.9% and 8.55%

Question: And the “percentage of monocytes” value [1, 4]?
Answer: completely impaired and 8.96% and 15.5% and 8.8% and 15.6% and 3.14% and 1.49% and 4.64% and 1.54%

Question: And the “percentage of neutrophils” value [1, 4]?
Answer: completely impaired and 2.26% and 5.17% and 2.81% and 2.01% and 0.54% and 0.23% and 0.5% and 0.44%

Question: And the “percentage of monocytes” value [1, 5]?
Answer: significantly enhanced recruitment and 15.8% and 17.3% and 13.3% and 8.16% and 21.5% and 17.9% and 10.5% and 16.5% and 16% and 7.28%

Question: What about the “percentage of neutrophils” value [1, 5] of the same substance?
Answer: significantly enhanced recruitment and 2.57% and 6.43% and 4.87% and 2.11% and 8.34% and 11.1% and 2.51% and 1.25% and 4.02% and 5.05%

Question: What about the “NK cells, % NK1.1+ cells of live CD45+ cells” value ([1]; WT mice, 1.5 µg lugdunin 24 h, one value per mouse, Supp Fig 3b) of the same substance?
Answer: 17.7% and 16.5% and 19.9% and 14.6% and 15.5% and 15.6% and 22.8% and 24.4% and 19.7% and 17.2%

Question: And the “B cells, % CD19+ cells of live CD45+ cells” value ([1]; WT mice, 1.5 µg lugdunin 24 h, one value per mouse, Supp Fig 3c)?
Answer: 0% and 0.14% and 0.15% and 0.03% and 0.04% and 0.05% and 0.01% and 0.02%

Question: And the “Dendritic cells, % CD11c+ cells of live CD45+ cells” value ([1]; WT mice, 1.5 µg lugdunin 24 h, one value per mouse, Supp Fig 3e)?
Answer: 16.5% and 7.96% and 9.38% and 7.83% and 7.66% and 8.63% and 12.4% and 7.01% and 13.5% and 11.2%

Question: And the “CD11b+ cells, % of live CD45+ cells” value ([1]; WT mice, 1.5 µg lugdunin 24 h, one value per mouse, Supp Fig 3f)?
Answer: 25.3% and 49.5% and 44.6% and 53.3% and 45% and 48.5% and 39.3% and 50.8% and 43.6%

Question: And the “Macrophages, % F4/80+ cells of CD11b+ CD45+ live cells” value ([1]; WT mice, 1.5 µg lugdunin 24 h, one value per mouse, Supp Fig 3g)?
Answer: slightly reduced and 61.4% and 62.3% and 69.6% and 70.5% and 63.1% and 61.1% and 64.2% and 53.1% and 77.9%

Question: What about the “T cells, % CD3+ cells of live CD45+ cells” value ([1]; WT mice, 1.5 µg lugdunin 24 h, one value per mouse, Supp Fig 3d) of the same substance?
Answer: 14.9% and 10.6% and 8% and 7.67% and 10.1% and 12.6% and 9.79% and 11.5% and 8.32% and 13.4%

Question: What about the “lysis of primary human neutrophils, erythrocytes or HL60 (in words)” value [2] of the same substance?
Answer: did neither cause lysis
